Laboratory results reported in PMC7674337, “Phylogenetic analysis of plant multi-domain SEC14-like phosphatidylinositol transfer proteins and structure–function properties of PATELLIN2” (Plant Molecular Biology, 2020).

Target: T1, PATL2 (PATELLIN2; StrepII-PATL2) (Arabidopsis thaliana, UniProt Q56ZI2)
T1 construct: full-length CDS from Col-0 root cDNA; StrepII-tagged (pET-52b(+)), E. coli BL21(DE3) pLysS; Strep-Tactin purified
T1 sequence (Q56ZI2 2-683): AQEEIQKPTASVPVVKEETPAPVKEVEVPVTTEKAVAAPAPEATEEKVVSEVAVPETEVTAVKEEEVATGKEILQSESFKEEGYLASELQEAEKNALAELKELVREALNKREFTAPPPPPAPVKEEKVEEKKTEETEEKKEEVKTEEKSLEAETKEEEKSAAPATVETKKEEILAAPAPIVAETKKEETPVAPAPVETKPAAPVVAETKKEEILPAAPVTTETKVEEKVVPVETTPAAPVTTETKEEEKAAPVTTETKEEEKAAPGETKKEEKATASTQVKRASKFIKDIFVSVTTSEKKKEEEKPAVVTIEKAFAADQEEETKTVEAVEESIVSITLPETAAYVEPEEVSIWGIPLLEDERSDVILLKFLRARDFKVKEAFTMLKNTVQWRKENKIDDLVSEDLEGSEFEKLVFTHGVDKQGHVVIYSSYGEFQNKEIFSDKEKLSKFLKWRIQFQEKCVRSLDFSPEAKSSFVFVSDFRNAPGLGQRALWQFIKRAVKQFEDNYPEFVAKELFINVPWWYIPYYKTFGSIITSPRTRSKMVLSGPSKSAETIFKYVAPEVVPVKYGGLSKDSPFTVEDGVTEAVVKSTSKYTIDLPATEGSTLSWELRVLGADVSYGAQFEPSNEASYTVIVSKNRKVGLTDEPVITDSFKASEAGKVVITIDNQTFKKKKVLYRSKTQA
Experiment: liposome co-sedimentation, immunoblot
Assay type: binding
Details: PC/PE liposomes with 7% phosphoinositide; 25 mM Tris-HCl pH 7.5, room temperature

CCCCCCCC/C=C\CCCCCCCC(=O)OC[C@H](COP(=O)(O)O[C@@H]1[C@H](O)[C@H](O)[C@@H](O)[C@H](O)[C@H]1O)OC(=O)CCCCCCC/C=C\CCCCCCCC [PI, 1,2-dioleoyl-sn-glycero-3-phospho-(1′-myo-inositol)]
liposome co-sedimentation, immunoblot: a low amount of PATL2 protein was found in the liposome membrane fraction
